Measured values from US10604534B2, “C5-C6-oxacyclic fused iminothiadiazine dioxide compounds bearing an ether linker as BACE inhibitors, compositions, and their use” (Merck Sharp & Dohme Corp., priority 2016, dated 2020).

Experiments:
[1] = biological target: purified human autoBACE-2 (Homo sapiens (Human), UniProt Q9Y5Z0); experiment: BACE-2 Assay (BACE-HTRF assay); format: biochemical; details: Ki calculated from IC50 using the Cheng-Prusoff equation; QSY7-EISEVNLDAEFC-Eu-amide substrate, pH 5.0
purified human autoBACE-2, sequence (Q9Y5Z0 63-473): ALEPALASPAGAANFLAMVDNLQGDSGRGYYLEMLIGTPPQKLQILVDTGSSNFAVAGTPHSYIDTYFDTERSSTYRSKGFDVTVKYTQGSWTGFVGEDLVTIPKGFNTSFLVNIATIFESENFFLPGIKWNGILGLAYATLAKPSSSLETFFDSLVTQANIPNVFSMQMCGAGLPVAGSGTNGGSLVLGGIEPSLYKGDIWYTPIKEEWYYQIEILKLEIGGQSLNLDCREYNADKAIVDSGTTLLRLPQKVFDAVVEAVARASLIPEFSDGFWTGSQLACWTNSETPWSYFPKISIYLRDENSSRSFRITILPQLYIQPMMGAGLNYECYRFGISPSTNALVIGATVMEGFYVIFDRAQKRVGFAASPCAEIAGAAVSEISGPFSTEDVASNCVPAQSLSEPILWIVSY
Method: Inhibitor IC50s at purified human autoBACE-2 are determined in a time-resolved endpoint proteolysis assay that measures hydrolysis of the QSY7-EISEVNLDAEFC-Eu-amide FRET peptide substrate (BACE-HTRF assay). BACE-mediated hydrolysis of this peptide results in an increase in relative fluorescence (RFU) at 620 nm after excitation with 320 nm light. Inhibitor compounds, prepared at 3× the desired final concentration in 1×BACE assay buffer (20 mM sodium acetate pH 5.0, 10% glycerol, 0.1% Brij-35) supplemented with 7.5% DMSO are preincubated with an equal volume of autoBACE-2 enzyme diluted in 1×BACE assay buffer (final enzyme concentration 1 nM) in black 384-well NUNC plates for 30 minutes at 30° C. […] DMSO is present at 5% final concentration in the assay. Following laser excitation of sample wells at 320 nm, the fluorescence signal at 620 nm is collected for 400 ms following a […] on a RUBYstar HTRF plate reader (BMG Labtechnologies). Raw RFU data is normalized to maximum (1.0 nM BACE/DMSO) and minimum (no enzyme/DMSO) RFU values. IC50s are determined by nonlinear regression analysis (sigmoidal dose response, variable slope) of percent inhibition data with minimum and maximum values set to 0 and 100 percent respectively. Similar IC50s are obtained when using raw RFU data. The Ki values are calculated from the IC50 using the Cheng-Prusoff equation.

[2] = biological target: soluble human BACE1 catalytic domain (Homo sapiens (Human), UniProt P56817); experiment: BACE1 HTRF FRET Assay; format: biochemical; details: Ki calculated from IC50 using the Cheng-Prusoff equation; QSY7-APPswe-Eu substrate, pH 5.0; read-out: BACE-1 Ki
soluble human BACE1 catalytic domain, sequence (P56817 75-416): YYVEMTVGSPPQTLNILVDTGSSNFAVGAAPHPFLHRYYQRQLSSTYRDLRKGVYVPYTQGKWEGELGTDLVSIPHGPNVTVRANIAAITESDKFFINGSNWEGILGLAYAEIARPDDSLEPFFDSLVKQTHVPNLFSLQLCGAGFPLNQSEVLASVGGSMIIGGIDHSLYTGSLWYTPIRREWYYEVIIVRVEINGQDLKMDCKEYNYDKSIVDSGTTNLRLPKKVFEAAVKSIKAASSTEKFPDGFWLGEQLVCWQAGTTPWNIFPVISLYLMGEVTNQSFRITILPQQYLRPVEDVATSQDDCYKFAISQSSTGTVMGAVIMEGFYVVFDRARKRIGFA
Excerpt: • Reagents: Na^+-Acetate pH 5.0; 1% Brij-35; Glycerol; Dimethyl Sulfoxide (DMSO); Recombinant human soluble BACE1 catalytic domain (>95% pure); APP Swedish mutant peptide substrate (QSY7-APP^swe-Eu): QSY7-EISEVNLDAEFC-Europium-amide.
A homogeneous time-resolved FRET assay can be used to determine IC50 values for inhibitors of the soluble human BACE1 catalytic domain. This assay monitors the increase of 620 nm fluorescence that resulted from BACE1 cleavage of an APPswedish APP^swe mutant peptide FRET substrate (QSY7-EISEVNLDAEFC-Europium-amide). This substrate contains an N-terminal QSY7 moiety that serves as a quencher of the C-terminal Europium fluorophore (620 nm Em). In the absence of enzyme activity, 620 nm fluorescence is low in the assay and increased linearly over 3 hours in the presence of uninhibited BACE1 enzyme. Inhibition of BACE1 cleavage of the QSY7-APP^swe-Eu substrate by inhibitors is manifested as a suppression of 620 nm fluorescence.
Varying concentrations of inhibitors at 3× the final desired concentration in a volume of 10 ul are preincubated with purified human BACE1 catalytic domain (3 nM in 10 μl) for 30 minutes at 30° C. in reaction buffer containing 20 mM Na-Acetate pH 5.0, 10% glycerol, 0.1% Brij-35 and 7.5% DSMO. Reactions are initiated by addition of 10 μl of 600 nM QSY7-APP^swe-Eu substrate (200 nM final) to give a final reaction volume of 30 μl in a 384 well Nunc HTRF plate. The reactions are incubated at 30° C. for 1.5 hours. The 620 nm fluorescence is then read on a Rubystar HTRF plate reader (BMG Labtechnologies) using a 50 millisecond delay followed by a 400 millisecond acquisition time window. Inhibitor IC50 values are derived from non-linear regression analysis of concentration response curves. Ki values are then calculated from IC50 values using the Cheng-Prusoff equation using a previously determined m value of […] for the QSY7-APP^swe-Eu substrate at BACE1.

Row | Compound | Ki [1] | Ki [2]
1 | C[C@H]1C[C@@H]2[C@](c3cc(Oc4ncccc4F)ccc3F)(CO1)NC(=N)N(C)S2(=O)=O [Example 1, (4aS,7S,8aR)-4a-(2-fluoro-5-((3-fluoropyridin-2-yl)oxy)phenyl)-3-imino-2,7-dimethyloctahydropyrano[3,4-e][1,2,4]thiadiazine 1,1-dioxide] | 1.6 nM | 3.4 nM
2 | C[C@H]1C[C@@H]2[C@](c3cc(Oc4cc(C#N)ccn4)ccc3F)(CO1)NC(=N)N(C)S2(=O)=O [Example 3, 2-(4-fluoro-3-((4aS,7S,8aR)-3-imino-2,7-dimethyl-1,1-dioxidooctahydropyrano[3,4-e][1,2,4]thiadiazin-4a-yl)phenoxy)isonicotinonitrile] | 2.3 nM | 2.7 nM
3 | C[C@H]1C[C@@H]2[C@](c3cc(Oc4ncncc4F)ccc3F)(CO1)NC(=N)N(C)S2(=O)=O [Example 4, (4aS,7S,8aR)-4a-(2-fluoro-5-((5-fluoropyrimidin-4-yl)oxy)phenyl)-3-imino-2,7-dimethyloctahydropyrano[3,4-e][1,2,4]thiadiazine 1,1-dioxide] | 5.9 nM | 12 nM
4 | C[C@H]1C[C@@H]2[C@](c3cc(Oc4ncc(F)cc4F)ccc3F)(CO1)NC(=N)N(C)S2(=O)=O [Example 5, (4aS,7S,8aR)-4a-(5-((3,5-difluoropyridin-2-yl)oxy)-2-fluorophenyl)-3-imino-2,7-dimethyloctahydropyrano[3,4-e][1,2,4]thiadiazine 1,1-dioxide] | 13 nM | 25 nM
5 | C[C@H]1C[C@@H]2[C@](c3cc(Oc4cc(F)cnc4F)ccc3F)(CO1)NC(=N)N(C)S2(=O)=O [Example 6, (4aS,7S,8aR)-4a-(5-((2,5-difluoropyridin-3-yl)oxy)-2-fluorophenyl)-3-imino-2,7-dimethyloctahydropyrano[3,4-e][1,2,4]thiadiazine 1,1-dioxide] | 15 nM | 7.1 nM
6 | C[C@H]1C[C@@H]2[C@](c3cc(OCC4CC4)ccc3F)(CO1)NC(=N)N(C)S2(=O)=O [Example 7, (4aS,7S,8aR)-4a-(5-(cyclopropylmethoxy)-2-fluorophenyl)-3-imino-2,7-dimethyloctahydropyrano[3,4-e][1,2,4]thiadiazine 1,1-dioxide] | 4.3 nM | 28 nM
7 | COC[C@H]1C[C@@H]2[C@](c3cc(Oc4cncc(OC)n4)ccc3F)(CO1)NC(=N)N(C)S2(=O)=O [Example 9, (4aS,7R,8aR)-4a-(2-fluoro-5-((6-methoxypyrazin-2-yl)oxy)phenyl)-3-imino-7-(methoxymethyl)-2-methyloctahydropyrano[3,4-e][1,2,4]thiadiazine 1,1-dioxide] | 9.4 nM | 4.6 nM
8 | COC[C@H]1C[C@@H]2[C@](c3cc(Oc4cc(C#N)ccn4)ccc3F)(CO1)NC(=N)N(C)S2(=O)=O [Example 10, 2-(4-fluoro-3-((4aS,7R,8aR)-3-imino-7-(methoxymethyl)-2-methyl-1,1-dioxidooctahydropyrano[3,4-e][1,2,4]thiadiazin-4a-yl)phenoxy)isonicotinonitrile] | 3.4 nM | 1.9 nM
9 | COC[C@H]1C[C@@H]2[C@](c3cc(Oc4ncncc4F)ccc3F)(CO1)NC(=N)N(C)S2(=O)=O [Example 11, (4aS,7R,8aR)-4a-(2-fluoro-5-((5-fluoropyrimidin-4-yl)oxy)phenyl)-3-imino-7-(methoxymethyl)-2-methyloctahydropyrano[3,4-e][1,2,4]thiadiazine 1,1-dioxide] | 4.5 nM | 5.9 nM
10 | COC[C@H]1C[C@@H]2[C@](c3cc(Oc4ncc(F)cc4F)ccc3F)(CO1)NC(=N)N(C)S2(=O)=O [Example 12, (4aS,7R,8aR)-4a-(5-((3,5-difluoropyridin-2-yl)oxy)-2-fluorophenyl)-3-imino-7-(methoxymethyl)-2-methyloctahydropyrano[3,4-e][1,2,4]thiadiazine 1,1-dioxide] | 18 nM | 20 nM
11 | COC[C@H]1C[C@@H]2[C@](c3cc(Oc4cc(F)cnc4F)ccc3F)(CO1)NC(=N)N(C)S2(=O)=O [Example 13, (4aS,7R,8aR)-4a-(5-((2,5-difluoropyridin-3-yl)oxy)-2-fluorophenyl)-3-imino-7-(methoxymethyl)-2-methyloctahydropyrano[3,4-e][1,2,4]thiadiazine 1,1-dioxide] | 10 nM | 2.1 nM
12 | COC[C@H]1C[C@@H]2[C@](c3cc(OCC4CC4)ccc3F)(CO1)NC(=N)N(C)S2(=O)=O [Example 14, (4aS,7R,8aR)-4a-(5-(cyclopropylmethoxy)-2-fluorophenyl)-3-imino-7-(methoxymethyl)-2-methyloctahydropyrano[3,4-e][1,2,4]thiadiazine 1,1-dioxide] | 2 nM | 7.9 nM

Continued, values first:

Row | Ki [1] | Ki [2] | Compound
13 | 28 nM | 9.1 nM | C[C@H]1C[C@@H]2[C@](c3cc(OCC45CC(C#N)(C4)C5)ccc3F)(CO1)NC(=N)N(C)S2(=O)=O [Example 8, 3-((4-fluoro-3-((4aS,7S,8aR)-3-imino-2,7-dimethyl-1,1-dioxidooctahydropyrano[3,4-e][1,2,4]thiadiazin-4a-yl)phenoxy)methyl)bicyclo[1.1.1]pentane-1-carbonitrile]
14 | 28 nM | 9.1 nM | COC[C@H]1C[C@@H]2[C@](c3cc(OCC45CC(C#N)(C4)C5)ccc3F)(CO1)NC(=N)N(C)S2(=O)=O [Example 15, 3-((4-fluoro-3-((4aS,7R,8aR)-3-imino-7-(methoxymethyl)-2-methyl-1,1-dioxidooctahydropyrano[3,4-e][1,2,4]thiadiazin-4a-yl)phenoxy)methyl)bicyclo[1.1.1]pentane-1-carbonitrile]
15 | 52 nM | 39 nM | COC[C@H]1C[C@@H]2[C@](c3cc(Oc4cccnc4)ccc3F)(CO1)NC(=N)N(C)S2(=O)=O [Example 16, (4aS,7R,8aR)-4a-(2-fluoro-5-(pyridin-3-yloxy)phenyl)-3-imino-7-(methoxymethyl)-2-methyloctahydropyrano[3,4-e][1,2,4]thiadiazine 1,1-dioxide]
16 | 6.9 nM | 4.3 nM | COC[C@H]1C[C@@H]2[C@](c3cc(Oc4cccc(C#N)c4)ccc3F)(CO1)NC(=N)N(C)S2(=O)=O [Example 17, 3-(4-fluoro-3-((4aS,7R,8aR)-3-imino-7-(methoxymethyl)-2-methyl-1,1-dioxidooctahydropyrano[3,4-e][1,2,4]thiadiazin-4a-yl)phenoxy)benzonitrile]
17 | 89 nM | 203 nM | COC[C@H]1C[C@@H]2[C@](c3cc(Oc4cnccc4Cl)ccc3F)(CO1)NC(=N)N(C)S2(=O)=O [Example 19, (4aS,7R,8aR)-4a-(5-((4-chloropyridin-3-yl)oxy)-2-fluorophenyl)-3-imino-7-(methoxymethyl)-2-methyloctahydropyrano[3,4-e][1,2,4]thiadiazine 1,1-dioxide]
